In publication PMC5668376, “Stochastic palmitoylation of accessible cysteines in membrane proteins revealed by native mass spectrometry” (Nature Communications, 2017):

Molecular target: T1, bacteriorhodopsin (Halobacterium salinarum, UniProt P02945)
T1 construct: gene bop; synthetic gene (GeneArt), start codon from vector, C-terminal triple StrepII tag, transiently expressed retinal-free in HEK293-EBNA1, purified in DDM; cysteine-free parent protein
T1 sequence (P02945 14-262): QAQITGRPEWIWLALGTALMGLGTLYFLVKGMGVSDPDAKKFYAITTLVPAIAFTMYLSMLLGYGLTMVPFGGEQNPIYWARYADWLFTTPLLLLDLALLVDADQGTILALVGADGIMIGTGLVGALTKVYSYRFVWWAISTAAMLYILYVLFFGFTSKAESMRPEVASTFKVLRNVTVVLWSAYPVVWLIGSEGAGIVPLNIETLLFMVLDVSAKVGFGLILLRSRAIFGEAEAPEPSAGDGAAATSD
Assay: native mass spectrometry of purified protein
Type: binding
Details: retinal added during purification; DDM micelles; 150 mM ammonium acetate pH 7.5; isomer not stated

## CC1=C(/C=C/C(C)=C/C=C/C(C)=C/C=O)C(C)(C)CCC1 [retinal]
  native mass spectrometry of purified protein: Upon addition of retinal during purification, bacteriorhodopsin mass spectra indicated peaks corresponding to the mass
